# Test results published in ChEMBL document CHEMBL5291721, “A preclinical secondary pharmacology resource illuminates target-adverse drug reaction associations of marketed drugs” (Nat Commun, 2023).
# Legend:
# [1] = target: Gamma-aminobutyric acid receptor subunit alpha-1 (Rattus norvegicus, UniProt P62813)
# [2] = target: T1, Thromboxane A2 receptor (Homo sapiens, UniProt P21731)
# T1 sequence (P21731 whole entry): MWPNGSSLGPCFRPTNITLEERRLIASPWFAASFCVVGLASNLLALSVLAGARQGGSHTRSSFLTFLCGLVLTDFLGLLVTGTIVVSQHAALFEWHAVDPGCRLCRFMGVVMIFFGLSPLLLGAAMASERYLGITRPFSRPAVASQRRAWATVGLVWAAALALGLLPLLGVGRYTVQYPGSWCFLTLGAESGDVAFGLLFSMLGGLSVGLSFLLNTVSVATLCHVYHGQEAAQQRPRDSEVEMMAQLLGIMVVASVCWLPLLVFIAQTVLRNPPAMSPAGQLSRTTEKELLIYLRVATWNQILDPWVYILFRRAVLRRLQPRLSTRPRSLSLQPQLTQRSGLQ
# [3] = target: Histamine H1 receptor (Homo sapiens, UniProt P35367)
# Histamine H1 receptor, sequence (P35367 whole entry): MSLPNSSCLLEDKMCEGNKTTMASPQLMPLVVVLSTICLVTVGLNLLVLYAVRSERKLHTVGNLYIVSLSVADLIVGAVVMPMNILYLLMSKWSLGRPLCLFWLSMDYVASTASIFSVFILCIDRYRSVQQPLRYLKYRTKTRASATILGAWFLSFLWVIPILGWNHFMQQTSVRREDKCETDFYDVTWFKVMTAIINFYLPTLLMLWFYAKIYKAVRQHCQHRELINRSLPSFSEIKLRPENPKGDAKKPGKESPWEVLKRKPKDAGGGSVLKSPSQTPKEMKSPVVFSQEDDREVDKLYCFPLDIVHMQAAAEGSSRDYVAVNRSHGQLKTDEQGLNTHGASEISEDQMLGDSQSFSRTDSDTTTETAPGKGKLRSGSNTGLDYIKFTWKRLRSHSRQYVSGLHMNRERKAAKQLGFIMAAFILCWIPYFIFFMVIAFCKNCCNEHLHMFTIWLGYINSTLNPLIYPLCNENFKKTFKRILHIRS
# [4] = target: Histamine H2 receptor (Homo sapiens, UniProt P25021); assay type: functional, cell-based
# Histamine H2 receptor, sequence (P25021 whole entry): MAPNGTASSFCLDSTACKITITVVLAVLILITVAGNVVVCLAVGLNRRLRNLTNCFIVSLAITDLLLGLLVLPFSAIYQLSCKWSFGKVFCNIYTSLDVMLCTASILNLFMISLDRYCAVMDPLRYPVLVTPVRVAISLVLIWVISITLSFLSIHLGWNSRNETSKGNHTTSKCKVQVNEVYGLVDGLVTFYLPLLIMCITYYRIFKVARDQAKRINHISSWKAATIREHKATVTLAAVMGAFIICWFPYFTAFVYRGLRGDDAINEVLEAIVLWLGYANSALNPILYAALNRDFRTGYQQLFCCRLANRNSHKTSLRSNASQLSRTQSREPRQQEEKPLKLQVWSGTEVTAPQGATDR
# [5] = target: T2, Muscarinic acetylcholine receptor M1 (Homo sapiens, UniProt P11229); assay type: functional
# T2 sequence (P11229 whole entry): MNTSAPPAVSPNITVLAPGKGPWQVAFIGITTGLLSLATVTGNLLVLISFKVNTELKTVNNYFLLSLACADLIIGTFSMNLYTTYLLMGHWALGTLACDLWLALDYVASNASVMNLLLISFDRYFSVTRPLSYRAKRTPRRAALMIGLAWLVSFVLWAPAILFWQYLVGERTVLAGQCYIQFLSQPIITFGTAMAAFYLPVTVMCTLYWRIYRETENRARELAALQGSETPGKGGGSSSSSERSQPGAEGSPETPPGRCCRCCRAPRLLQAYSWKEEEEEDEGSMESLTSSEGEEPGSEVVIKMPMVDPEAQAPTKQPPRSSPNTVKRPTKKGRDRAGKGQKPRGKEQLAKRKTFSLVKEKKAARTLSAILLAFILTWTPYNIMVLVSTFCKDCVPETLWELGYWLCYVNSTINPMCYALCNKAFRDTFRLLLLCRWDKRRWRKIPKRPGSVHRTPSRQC
# [6] = target: T3, Progesterone receptor (Homo sapiens, UniProt P06401); assay type: functional
# T3 sequence (P06401 whole entry): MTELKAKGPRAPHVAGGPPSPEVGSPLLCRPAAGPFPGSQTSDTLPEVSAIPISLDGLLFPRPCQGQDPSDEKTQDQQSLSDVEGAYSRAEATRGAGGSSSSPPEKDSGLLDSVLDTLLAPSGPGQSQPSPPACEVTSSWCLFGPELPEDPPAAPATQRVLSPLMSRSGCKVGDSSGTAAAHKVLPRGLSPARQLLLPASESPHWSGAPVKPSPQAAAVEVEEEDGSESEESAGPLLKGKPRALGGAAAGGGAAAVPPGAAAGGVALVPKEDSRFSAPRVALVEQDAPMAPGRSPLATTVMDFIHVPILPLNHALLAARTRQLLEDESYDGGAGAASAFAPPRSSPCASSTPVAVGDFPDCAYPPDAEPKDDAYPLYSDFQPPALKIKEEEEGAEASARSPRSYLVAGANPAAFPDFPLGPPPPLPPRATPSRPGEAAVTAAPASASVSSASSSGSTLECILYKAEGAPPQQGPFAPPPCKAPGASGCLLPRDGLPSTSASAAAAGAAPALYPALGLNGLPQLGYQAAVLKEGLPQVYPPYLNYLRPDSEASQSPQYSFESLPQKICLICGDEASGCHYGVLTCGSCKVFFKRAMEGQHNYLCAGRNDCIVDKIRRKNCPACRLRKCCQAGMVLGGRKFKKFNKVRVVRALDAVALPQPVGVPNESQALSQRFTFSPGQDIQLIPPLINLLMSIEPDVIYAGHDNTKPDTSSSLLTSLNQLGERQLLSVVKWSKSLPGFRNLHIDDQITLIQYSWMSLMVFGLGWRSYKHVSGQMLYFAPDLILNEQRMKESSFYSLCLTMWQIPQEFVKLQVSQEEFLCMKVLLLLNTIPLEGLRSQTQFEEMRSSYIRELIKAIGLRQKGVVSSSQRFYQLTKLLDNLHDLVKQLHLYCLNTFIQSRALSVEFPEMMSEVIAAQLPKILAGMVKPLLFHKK
# [7] = target: T3, Progesterone receptor; assay type: functional; remark: listed apart in the source
# [8] = target: T4, Alpha-1A adrenergic receptor (Homo sapiens, UniProt P35348); assay type: functional, cell-based
# T4 sequence (P35348 whole entry): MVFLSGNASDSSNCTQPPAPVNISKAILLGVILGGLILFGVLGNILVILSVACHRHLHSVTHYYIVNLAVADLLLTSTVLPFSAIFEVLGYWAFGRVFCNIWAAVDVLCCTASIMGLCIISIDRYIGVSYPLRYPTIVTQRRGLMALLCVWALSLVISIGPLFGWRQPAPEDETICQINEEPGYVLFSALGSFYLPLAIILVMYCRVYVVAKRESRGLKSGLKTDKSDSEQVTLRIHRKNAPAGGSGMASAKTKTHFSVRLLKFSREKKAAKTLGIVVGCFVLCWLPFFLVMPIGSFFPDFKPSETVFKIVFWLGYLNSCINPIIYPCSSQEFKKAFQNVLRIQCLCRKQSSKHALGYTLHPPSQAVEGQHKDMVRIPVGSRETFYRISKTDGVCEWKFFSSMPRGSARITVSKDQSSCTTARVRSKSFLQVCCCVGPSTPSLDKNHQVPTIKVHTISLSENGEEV
# [9] = target: T4, Alpha-1A adrenergic receptor; assay type: functional, cell-based; remark: listed apart in the source
# [10] = target: Histamine H3 receptor (Homo sapiens, UniProt Q9Y5N1)
# Histamine H3 receptor, sequence (Q9Y5N1 whole entry): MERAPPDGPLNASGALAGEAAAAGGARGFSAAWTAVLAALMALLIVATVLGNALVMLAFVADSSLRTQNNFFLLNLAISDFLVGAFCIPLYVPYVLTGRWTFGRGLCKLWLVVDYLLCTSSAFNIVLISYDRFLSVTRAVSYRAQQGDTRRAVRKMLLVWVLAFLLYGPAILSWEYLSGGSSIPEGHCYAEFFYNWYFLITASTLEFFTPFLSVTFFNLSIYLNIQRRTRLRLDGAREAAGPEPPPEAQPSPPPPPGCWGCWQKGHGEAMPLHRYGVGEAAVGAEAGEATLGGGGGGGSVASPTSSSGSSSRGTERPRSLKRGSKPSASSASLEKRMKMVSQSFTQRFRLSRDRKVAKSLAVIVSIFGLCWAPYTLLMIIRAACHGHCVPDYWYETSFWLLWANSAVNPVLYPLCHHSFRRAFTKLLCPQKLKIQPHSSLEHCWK
# [11] = target: 5-hydroxytryptamine receptor 2B (Homo sapiens, UniProt P41595); assay type: functional, cell-based
# 5-hydroxytryptamine receptor 2B, sequence (P41595 whole entry): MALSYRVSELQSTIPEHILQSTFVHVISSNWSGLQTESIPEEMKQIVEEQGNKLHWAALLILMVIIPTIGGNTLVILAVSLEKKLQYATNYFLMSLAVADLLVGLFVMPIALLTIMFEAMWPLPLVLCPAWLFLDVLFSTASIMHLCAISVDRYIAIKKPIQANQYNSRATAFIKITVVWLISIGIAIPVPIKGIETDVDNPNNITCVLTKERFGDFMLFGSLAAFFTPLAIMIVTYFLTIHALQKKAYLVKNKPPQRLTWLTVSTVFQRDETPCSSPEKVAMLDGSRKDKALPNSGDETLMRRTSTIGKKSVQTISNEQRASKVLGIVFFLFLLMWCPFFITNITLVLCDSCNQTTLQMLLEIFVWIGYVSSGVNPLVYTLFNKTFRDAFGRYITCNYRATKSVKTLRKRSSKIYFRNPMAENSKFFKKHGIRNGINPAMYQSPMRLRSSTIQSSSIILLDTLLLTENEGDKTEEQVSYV
# [12] = target: T1, Thromboxane A2 receptor; assay type: functional, cell-based
# [13] = target: cGMP-inhibited 3',5'-cyclic phosphodiesterase 3A (Homo sapiens, UniProt Q14432); assay type: functional
# cGMP-inhibited 3',5'-cyclic phosphodiesterase 3A, sequence (Q14432 whole entry): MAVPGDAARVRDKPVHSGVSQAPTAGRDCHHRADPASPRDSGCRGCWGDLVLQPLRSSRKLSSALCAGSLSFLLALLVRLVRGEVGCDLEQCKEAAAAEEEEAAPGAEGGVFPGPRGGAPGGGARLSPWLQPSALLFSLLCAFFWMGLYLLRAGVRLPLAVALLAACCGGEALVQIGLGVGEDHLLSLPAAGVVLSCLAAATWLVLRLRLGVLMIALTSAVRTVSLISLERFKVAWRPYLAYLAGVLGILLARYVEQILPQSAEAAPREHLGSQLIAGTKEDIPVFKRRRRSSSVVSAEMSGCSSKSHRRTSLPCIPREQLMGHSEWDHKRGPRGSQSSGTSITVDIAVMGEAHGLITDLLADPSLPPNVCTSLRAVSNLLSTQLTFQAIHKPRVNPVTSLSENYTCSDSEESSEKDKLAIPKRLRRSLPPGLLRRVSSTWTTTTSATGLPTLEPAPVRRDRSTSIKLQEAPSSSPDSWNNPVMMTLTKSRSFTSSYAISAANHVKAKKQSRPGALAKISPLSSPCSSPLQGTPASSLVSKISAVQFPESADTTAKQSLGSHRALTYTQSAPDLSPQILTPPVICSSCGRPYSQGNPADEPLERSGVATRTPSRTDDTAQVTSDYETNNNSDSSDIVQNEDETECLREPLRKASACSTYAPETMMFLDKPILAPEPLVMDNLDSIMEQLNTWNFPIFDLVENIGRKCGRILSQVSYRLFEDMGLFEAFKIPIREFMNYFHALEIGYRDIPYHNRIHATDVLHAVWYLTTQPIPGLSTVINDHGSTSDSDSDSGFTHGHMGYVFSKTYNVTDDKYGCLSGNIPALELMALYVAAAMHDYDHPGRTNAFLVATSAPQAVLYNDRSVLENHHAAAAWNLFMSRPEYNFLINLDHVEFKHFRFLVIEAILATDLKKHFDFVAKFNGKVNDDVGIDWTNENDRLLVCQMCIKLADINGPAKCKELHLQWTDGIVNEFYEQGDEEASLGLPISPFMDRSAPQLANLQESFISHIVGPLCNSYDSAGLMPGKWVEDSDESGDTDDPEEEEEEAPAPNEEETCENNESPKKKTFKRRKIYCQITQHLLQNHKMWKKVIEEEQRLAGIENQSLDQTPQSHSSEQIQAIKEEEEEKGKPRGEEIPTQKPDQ
# [14] = target: Prostaglandin G/H synthase 1 (Homo sapiens, UniProt P23219); assay type: functional
# Prostaglandin G/H synthase 1, sequence (P23219 whole entry): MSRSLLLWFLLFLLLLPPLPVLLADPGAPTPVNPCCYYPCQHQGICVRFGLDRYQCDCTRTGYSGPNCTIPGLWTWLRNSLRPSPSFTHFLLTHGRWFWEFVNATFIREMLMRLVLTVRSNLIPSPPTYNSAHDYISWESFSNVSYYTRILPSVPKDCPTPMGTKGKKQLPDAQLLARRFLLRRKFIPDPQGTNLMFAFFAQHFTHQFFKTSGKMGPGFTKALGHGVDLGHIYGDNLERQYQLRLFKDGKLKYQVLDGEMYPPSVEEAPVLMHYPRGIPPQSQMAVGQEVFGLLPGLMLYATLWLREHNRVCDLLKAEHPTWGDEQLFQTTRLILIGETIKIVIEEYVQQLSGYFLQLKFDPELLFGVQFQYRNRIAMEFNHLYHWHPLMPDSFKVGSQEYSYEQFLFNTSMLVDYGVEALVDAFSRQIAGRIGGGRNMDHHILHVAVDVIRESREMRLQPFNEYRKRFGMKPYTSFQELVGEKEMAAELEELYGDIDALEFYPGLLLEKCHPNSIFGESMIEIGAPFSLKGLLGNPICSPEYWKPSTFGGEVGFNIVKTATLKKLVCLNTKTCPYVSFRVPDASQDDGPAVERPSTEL
# [15] = target: T4, Alpha-1A adrenergic receptor; assay type: functional, cell-based; remark: listed apart in the source
# Further: assay procedure not described here.
# Gamma-aminobutyric acid receptor subunit alpha-1, sequence (P62813 whole entry): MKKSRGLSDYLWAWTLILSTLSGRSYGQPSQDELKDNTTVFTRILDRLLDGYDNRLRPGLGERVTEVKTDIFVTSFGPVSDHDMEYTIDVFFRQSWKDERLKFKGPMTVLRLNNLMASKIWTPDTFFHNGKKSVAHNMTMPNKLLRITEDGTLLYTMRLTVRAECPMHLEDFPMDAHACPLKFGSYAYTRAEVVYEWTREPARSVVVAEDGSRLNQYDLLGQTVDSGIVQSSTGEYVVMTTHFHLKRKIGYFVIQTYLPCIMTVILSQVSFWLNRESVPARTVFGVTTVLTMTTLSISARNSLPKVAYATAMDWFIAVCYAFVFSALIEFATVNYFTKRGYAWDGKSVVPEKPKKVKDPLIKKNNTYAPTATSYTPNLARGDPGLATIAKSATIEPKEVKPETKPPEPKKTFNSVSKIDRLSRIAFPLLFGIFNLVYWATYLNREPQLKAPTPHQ
SMILES,AC50 [1],AC50 [2],AC50 [3],AC50 [4],AC50 [5],AC50 [6],AC50 [7],AC50 [8],AC50 [9],AC50 [10],AC50 [11],AC50 [12],AC50 [13],AC50 [14],AC50 [15]
CCOC(=O)Nc1ccc(NCc2ccc(F)cc2)nc1N [FLUPIRTINE],> 30 µM,29 µM,> 30 µM,> 30 µM,> 30 µM,> 30 µM,–,–,–,–,–,–,–,–,–
CCOc1ccccc1OCCN[C@H](C)Cc1ccc(OC)c(S(N)(=O)=O)c1 [TAMSULOSIN],> 10 µM,> 30 µM,> 10 µM,> 10 µM,> 10 µM,–,–,–,–,–,–,–,–,–,–
CCN(CCO)CCCC(C)Nc1ccnc2cc(Cl)ccc12 (centres undefined) [HYDROXYCHLOROQUINE],> 10 µM,> 10 µM,–,> 10 µM,–,> 10 µM,> 10 µM,–,–,–,–,–,–,–,–
C[C@H](CCC(=O)O)[C@H]1CC[C@H]2[C@@H]3[C@H](O)C[C@@H]4C[C@H](O)CC[C@]4(C)[C@H]3CC[C@]12C [CHENODIOL],–,–,> 30 µM,–,> 30 µM,–,–,19 µM,> 30 µM,–,–,–,–,–,–
C#CCN(C)Cc1ccccc1 [PARGYLINE],> 30 µM,–,> 30 µM,> 30 µM,> 30 µM,–,–,> 30 µM,> 30 µM,> 30 µM,> 30 µM,> 30 µM,> 30 µM,> 30 µM,–
CN(C)CCCC1(c2ccc(F)cc2)OCc2cc(C#N)ccc21 (centres undefined) [CITALOPRAM],> 10 µM,> 30 µM,–,–,–,–,–,–,–,> 30 µM,> 30 µM,> 30 µM,> 30 µM,> 30 µM,–
O=c1[nH]c2ccccc2n1CCN1CCN(c2cccc(C(F)(F)F)c2)CC1 [FLIBANSERIN],–,–,–,–,–,–,–,–,–,> 30 µM,> 30 µM,10.5 µM,> 30 µM,> 30 µM,> 30 µM
C[C@]12CCC(=O)C=C1CC[C@H]1[C@@H]3CC[C@](O)(C(=O)CO)[C@@]3(C)C[C@H](O)[C@@]12F [FLUDROCORTISONE],> 10 µM,> 30 µM,> 10 µM,> 10 µM,> 10 µM,–,–,> 30 µM,> 30 µM,–,–,–,–,–,–
C[C@H](CS)C(=O)N1CCC[C@H]1C(=O)O [CAPTOPRIL],> 10 µM,–,–,> 30 µM,–,–,–,> 30 µM,> 30 µM,–,–,–,–,–,–
C=CC1=C(C(=O)O)N2C(=O)[C@@H](NC(=O)/C(=N\O)c3csc(N)n3)[C@H]2SC1,> 10 µM,> 30 µM,> 10 µM,> 10 µM,> 10 µM,–,–,> 30 µM,> 30 µM,–,–,–,–,–,–
CCOC(=O)[C@H](CCc1ccccc1)N[C@@H](C)C(=O)N1Cc2ccccc2C[C@H]1C(=O)O,> 10 µM,> 30 µM,–,> 10 µM,–,–,–,> 30 µM,> 30 µM,> 30 µM,> 30 µM,> 30 µM,> 30 µM,> 30 µM,> 30 µM
NCCCNCCSP(=O)(O)O [AMIFOSTINE],> 30 µM,> 30 µM,–,> 30 µM,–,–,–,–,> 30 µM,–,–,–,–,–,–
O=c1[nH]cc(F)c(=O)[nH]1 [FLUOROURACIL],–,–,–,–,–,> 30 µM,–,–,–,> 30 µM,> 30 µM,> 30 µM,> 30 µM,> 30 µM,> 30 µM
O=NN(CCCl)C(=O)NC1CCCCC1 [LOMUSTINE],–,–,–,–,–,–,–,–,–,> 30 µM,> 30 µM,> 30 µM,> 30 µM,> 30 µM,14.1 µM
CC(=O)Oc1ccccc1C(=O)O [ASPIRIN],> 10 µM,> 30 µM,–,> 10 µM,–,–,–,> 30 µM,> 30 µM,> 30 µM,> 30 µM,> 30 µM,> 30 µM,–,> 30 µM
CCC1(c2ccccc2)C(=O)NCNC1=O [PRIMIDONE],–,> 10 µM,–,> 10 µM,–,> 10 µM,> 10 µM,–,–,–,–,–,–,–,–
O=C(O)COC(=O)Cc1ccccc1Nc1c(Cl)cccc1Cl [ACECLOFENAC],> 10 µM,2.54 µM,–,> 10 µM,–,–,–,> 30 µM,> 30 µM,–,–,–,–,–,–
CNC1(c2ccccc2Cl)CCCCC1=O (centres undefined) [KETAMINE],–,–,–,–,–,–,–,–,–,> 30 µM,> 30 µM,> 30 µM,> 30 µM,> 30 µM,> 30 µM
NC(=O)C1(N2CCCCC2)CCN(CCCN2c3ccccc3CCc3ccccc32)CC1 [CARPIPRAMINE],–,–,–,–,–,–,–,–,–,11.7 µM,> 30 µM,–,> 30 µM,> 30 µM,13.7 µM
O=C(Cc1cccs1)N[C@@H]1C(=O)N2C(C(=O)[O-])=C(C[n+]3ccccc3)CS[C@H]12 [CEPHALORIDINE],> 30 µM,–,> 30 µM,> 30 µM,> 30 µM,–,–,> 30 µM,> 30 µM,> 30 µM,> 30 µM,> 30 µM,> 30 µM,16.4 µM,–
NCCCCCC(=O)O [AMINOCAPROIC ACID],> 10 µM,> 10 µM,–,> 10 µM,–,> 10 µM,> 10 µM,–,–,–,–,–,–,–,–
O=C(O)[C@@H](S)[C@@H](S)C(=O)O,–,–,–,–,–,–,–,–,–,> 30 µM,> 30 µM,> 30 µM,> 30 µM,> 30 µM,–
OCCOCCN1CCN(C(c2ccccc2)c2ccc(Cl)cc2)CC1 (centres undefined) [HYDROXYZINE],> 10 µM,> 30 µM,0.039 µM,> 10 µM,> 10 µM,–,–,9.67 µM,> 30 µM,–,–,–,–,–,–
Nc1nnc(-c2cccc(Cl)c2Cl)c(N)n1 [LAMOTRIGINE],> 10 µM,> 30 µM,–,> 10 µM,–,–,–,> 30 µM,> 30 µM,–,–,–,–,–,–
O=P1(N(CCCl)CCCl)NCCCO1 (centres undefined) [CYCLOPHOSPHAMIDE ANHYDROUS],–,–,–,–,–,–,–,–,–,> 30 µM,> 30 µM,> 30 µM,> 30 µM,> 30 µM,> 30 µM
